Measurements as given in US9814778B2, “Ionically crosslinked polyelectrolytes as underwater adhesives as controlled release vehicles” (The University of Toledo, priority 2014, dated 2017).

Legend:
PAH/PPi complexes = test: Isothermal titration calorimetry of dyes into PAH/PPi dispersion; type: binding; details: pH 7
Procedure: (§1) The Fast Green FCF and Rhodamine B solutions were then prepared at concentrations of 0.43 and 0.80 wt %, respectively. All solutions were adjusted to pH 7 using HCl and NaOH. ITC experiments were run by placing the PAH/PPi or PAH/TPP complex solutions in the sample cell, and loading the dye solution into the injector. The dye solutions were then titrated using twenty 15-μL injections, with 20 min equilibration intervals between each injection. The contents of the sample cell were stirred at 307 rpm with the impeller-shaped injector tip. The instrument software was used to integrate the raw ITC data obtained from these titrations. The heat of dilution, which was obtained by titrating the dye solutions into DI water, was then subtracted from the integrated data to obtain the final thermograms. To ensure reproducibility, each ITC test was repeated twice.
(§2) Fast Green FCF and Rhodamine B are anionic and cationic, respectively. ITC was used to probe the binding of these dye molecules to the ionically crosslinked networks. In ITC the heat required to maintain a sample cell (which contains a binding substrate solution) at a constant temperature upon the addition of a binding ligand solution is measured, with endothermic or exothermic peaks in the ITC raw data indicating binding. […]

[1] = Dye loading efficiency and loading capacity of dye-loaded coacervates (UV-Vis of supernatant); type: physicochemical
Procedure: All solutions were adjusted to pH 7 using HCl and NaOH prior to mixing. The mixtures were than centrifuged at 15,000 rpm for 90 min using an Ependorf centrifuge. […] The loading capacity (LC) and loading efficiency (LE) for each loading procedure was calculated by subtracting the mass of dye in the supernatant from the total mass of dye originally in the solutions in the microcentrifuge tubes. The total dye mass in the supernatant was determined by measuring the supernatant mass in each tube and determining the supernatant dye concentration using UV-Vis spectroscopy (Varian Cary 50 Spectrophotometer) and the absorbance at a wavelength of 614 nm (ε=9.57×103 m2/mol) and 555 nm (ε=9.82×103 m2/mol) for Fast Green FCF and Rhodamine B, respectively. The LC and LE were then calculated using the following equations: […]
Similarly, the LEs of the dye-loaded complexes was measured at a constant initial dye concentration of 1 mg/ml while the PAH concentration was varied. The dye-loaded complex samples were prepared as outlined above; however, the PAH concentration was varied (between 2.5 and 10.0 wt %). […] The LC- and LE-values were then determined using Equations 1 and 2.

PAH/TPP complexes = test: Isothermal titration calorimetry of dyes into PAH/TPP dispersion; type: binding; details: pH 7
Procedure: as §1, §2

[2] = Dye release from dye-loaded complexes in 1×PBS at 37° C. (UV-Vis); type: physicochemical; details: PAH/PPi and PAH/TPP complexes, 7-8 mm plugs, time span of up to 164 days
Procedure: The supernatant was removed from the microcentrifuge tube, and the inside of the tube was rinsed with DI water to ensure all excess supernatant was removed. The release medium, 1 ml of 1×PBS, was then added to the microcentrifuge tube. During the release evaluations, the contents of the microcentrifuge tube was mixed at 400 rpm in an Ependorf Thermomixer at 37° C. The old PBS solution was replaced with fresh PBS daily. UV-Vis spectroscopy was used to determine the amount of dye released within this one day interval. The concentration of dye in the PBS was determined using the absorbance of the solution as described above. These release studies were run until the amount of dye released in one day became so low that a discernable peak in the UV-Vis spectrum could not be obtained. The weight of the adhesives was also tracked during the release process using the procedure described above. Each release experiment was repeated thrice to ensure reproducibility. An additional release study was run (using the same complex/dye compositions) with tap water at room temperature as the release medium.
The released dye concentration in the PBS was determined using UV-Vis spectroscopy, with the PBS being replaced daily. This procedure was repeated until discernable UV-Vis peaks could no longer be obtained from the PBS samples in order to obtain release profiles. […]

[3] = in solution; cited from earlier work
[4] = PAH/PPi, initial dye 0.5 mg/ml, 10.0 wt % PAH
[5] = PAH/PPi, initial dye 1 mg/ml, 5% PAH
[6] = PAH/PPi, initial dye 1 mg/ml, 10% PAH
[7] = PAH/PPi, initial dye 1 mg/ml, 10.0 wt % PAH
[8] = PAH/PPi, initial dye 4 mg/ml, 10.0 wt % PAH
[9] = PAH/TPP, initial dye 0.5 mg/ml, 10.0 wt % PAH
[10] = PAH/TPP, initial dye 1 mg/ml, 5% PAH
[11] = PAH/TPP, initial dye 1 mg/ml, 10% PAH
[12] = PAH/TPP, initial dye 1 mg/ml, 10.0 wt % PAH
[13] = PAH/TPP, initial dye 4 mg/ml, 10.0 wt % PAH

Row | Compound | binding to the ionically crosslinked network (ITC) (PAH/PPi complexes) | Loading Capacity [1, 4] [mg/mL] | Loading Efficiency [1, 4] [%] | Loading Efficiency [1, 5] [%] | Loading Efficiency [1, 6] [%] | Loading Capacity [1, 7] [mg/mL] | Loading Capacity [1, 8] [mg/mL] | Loading Efficiency [1, 8] [%] | Loading Capacity [1, 9] [mg/mL] | Loading Efficiency [1, 9] [%] | Loading Efficiency [1, 10] [%] | Loading Efficiency [1, 11] [%] | Loading Capacity [1, 12] [mg/mL] | Loading Capacity [1, 13] [mg/mL] | Loading Efficiency [1, 13] [%] | binding to the ionically crosslinked network (ITC) (PAH/TPP complexes) | also measured
1 | CCN(CC)c1ccc2c(-c3ccccc3C(=O)O)c3ccc(=[N+](CC)CC)cc-3oc2c1.[Cl-] [Rhodamine B] | binds only very weakly and non-cooperatively | 0.55 ± 0.16 | 9.83 ± 2.79 | 3.76 ± 0.45 | 6.38 ± 0.79 | 0.71 ± 0.09 | 3.46 ± 1.24 | 7.76 ± 2.77 | 0.45 ± 0.11 | 8.71 ± 2.10 | 3.78 ± 0.32 | 6.27 ± 1.04 | 0.65 ± 0.11 | 2.74 ± 0.58 | 6.62 ± 1.41 | binds only very weakly and non-cooperatively | Loading Efficiency ([1]; PAH/PPi, initial dye 1 mg/ml, 2.5% PAH): 1.49 ± 0.30%; Loading Efficiency ([1]; PAH/TPP, initial dye 1 mg/ml, 2.5% PAH): 1.59 ± 0.65%
2 | CCN(Cc1cccc(S(=O)(=O)[O-])c1)c1ccc(C(=C2C=CC(=[N+](CC)Cc3cccc(S(=O)(=O)[O-])c3)C=C2)c2ccc(O)cc2S(=O)(=O)[O-])cc1.[Na+].[Na+] [Fast Green, Fast Green FCF] | strong cooperative binding | 3.16 ± 0.17 | 56.48 ± 3.04 | 61.69 ± 1.13 | 63.03 ± 1.37 | 7.04 ± 0.15 | 30.62 ± 0.93 | 68.54 ± 2.09 | 3.31 ± 0.07 | 64.01 ± 1.45 | 72.40 ± 0.53 | 72.94 ± 3.09 | 7.54 ± 0.32 | 30.89 ± 1.43 | 74.74 ± 3.47 | strong cooperative binding | fraction of payload released [2]: < 5%
3 | tripolyphosphate [TPP] |  |  |  |  |  |  |  |  |  |  |  |  |  |  |  |  | pKa,3 [3]: 2.8; pKa,4 [3]: 6.5; pKa,5 [3]: 9.2
